Source: paper PMC2670245 (Bioorganic & medicinal chemistry, 2008)
pKi: −log10 of the molar value. Entries after “also recorded” stand apart in the source; their conditions may differ.

What was measured:
σ2 receptor = molecular target: T1, σ2 receptor (Rattus norvegicus, UniProt Q5U3Y7); test: σ2 receptor competitive binding with [^3H]RHM-1; conditions: Ki of σ1/σ2 ratio
T1 sequence (Q5U3Y7 1-176): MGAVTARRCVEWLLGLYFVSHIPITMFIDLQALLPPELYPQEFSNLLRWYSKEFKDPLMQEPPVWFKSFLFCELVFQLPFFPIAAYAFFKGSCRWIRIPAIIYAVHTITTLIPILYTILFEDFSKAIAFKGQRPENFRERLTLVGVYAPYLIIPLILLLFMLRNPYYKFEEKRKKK

EMT-6 cells = test: colony formation; format: cell-based, mouse
MDA-MB435 cells = test: colony formation; format: cell-based, human
Panc-02 = conditions: cited from earlier work
5-HT3 = conditions: read-out: Ki 5-HT3; cited from earlier work
5-HT4 = conditions: read-out: Ki 5-HT4; cited from earlier work

## COc1ccc(C)cc1NC(=O)OC1CC2CCCC(C1)N2Cc1ccc(CCF)cc1 (centres unmarked) [WC-59, 9-(4-(2-Fluoroethyl)benzyl)-9-azabicyclo[3.3.1]nonan-3-yl-2-methoxy-5-methyl-phenylcarbamate]
σ2 receptor
  σ1/σ2 (Ki ratio): 2,087

## COc1cccc2c1C(=O)c1c(O)c3c(c(O)c1C2=O)C[C@@](O)(C(=O)CO)C[C@@H]3O[C@H]1C[C@H](N)[C@H](O)[C@H](C)O1 [DOX, doxorubicin, reference compound]
EMT-6 cells; EMT-6, DOX <20 μM, 24 h
  tumor cell kill as single agent: no tumor cell kill
MDA-MB435 cells; MDA-MB435, DOX <20 μM, 24 h
  tumor cell kill as single agent: no tumor cell kill

## COc1ccc(C)cc1NC(=O)OC1CC2CCCC(C1)N2Cc1ccc(N(C)C)cc1 (centres unmarked) [WC-26, 9-(4-(Dimethylamino)benzyl)-9-azabicyclo[3.3.1]nonan-3-yl-2-methoxy-5-methyl-phenylcarbamate]
EMT-6 cells; EMT-6, 2 μM WC-26 16 h, then range of DOX concentrations added for 24 h
  clonogenic survival, combination with DOX compared to DOX alone: large decrease in clonogenic survival
EMT-6 cells; EMT-6, 2 μM WC-26 alone, 40 h
  cell kill as single agent: no measureable cell kill; also recorded: no tumor cell kill
MDA-MB435 cells; MDA-MB435, 2 μM WC-26 16 h, then range of DOX concentrations added for 24 h
  clonogenic survival, combination with DOX compared to DOX alone: large decrease in clonogenic survival
MDA-MB435 cells; MDA-MB435, 2 μM WC-26 alone, 40 h
  cell kill as single agent: no measureable cell kill; also recorded: no tumor cell kill
Panc-02; flow cytometry
  apoptosis in treated tumors: dose-dependent increases in apoptosis
Panc-02; treated mice
  systemic toxicity: no evidence of systemic toxicity

## COc1ccc(C)cc1NC(=O)OC1CC2CCCC(C1)N2Cc1ccccc1 (centres unmarked) [Compound 6, 9-Benzyl-9-azabicyclo[3.3.1]nonan-3-yl-2-methoxy-5-methylphenylcarbamate]
5-HT3
  pKi: < 6.00
5-HT4
  pKi: < 6.00
